Our source for the IC50 and EC50 values is patent publication US11932634B2 (Gilead Sciences, Inc., priority 2021, dated 2024).

One assay concerns the target T1, human DGKα (Homo sapiens, UniProt P23743).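 Also: recombinant enzyme converting diacylglycerol in lipid micelles with ATP, ADP formed detected by luminescence, IC50 from a four-parameter nonlinear fit, geometric mean across experiments.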
T1 construct: purchased Carna Biosciences'; inferred from the same paragraph's 'obtained from Carna Biosciences')
In words: DGKα Biochemical Activity Assay (ADP-Glo). (In general: ADP-Glo turns the ADP formed in a reaction into a luminescent signal.)

In assay [1] the test system is Jurkat NFκB-luciferase cells. The assay is described as follows: Jurkat NFκB-Luciferase Assay.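 Also: bioluminescence read-out normalized to DMSO basal activation and to maximum enhancement at 1 µM compound, rising signal indicating stronger T-cell activation through DGKα inhibition.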 Format: cell-based. Conditions: Homo sapiens; Jurkat NFκB-luciferase cells activated with anti-CD3 antibody (OKT3), 2.5 hrs at 37° C., One-Glo Ex; geometric mean; read-out: DGK NFKb Luciferase EC50.

T1 sequence (P23743 whole entry): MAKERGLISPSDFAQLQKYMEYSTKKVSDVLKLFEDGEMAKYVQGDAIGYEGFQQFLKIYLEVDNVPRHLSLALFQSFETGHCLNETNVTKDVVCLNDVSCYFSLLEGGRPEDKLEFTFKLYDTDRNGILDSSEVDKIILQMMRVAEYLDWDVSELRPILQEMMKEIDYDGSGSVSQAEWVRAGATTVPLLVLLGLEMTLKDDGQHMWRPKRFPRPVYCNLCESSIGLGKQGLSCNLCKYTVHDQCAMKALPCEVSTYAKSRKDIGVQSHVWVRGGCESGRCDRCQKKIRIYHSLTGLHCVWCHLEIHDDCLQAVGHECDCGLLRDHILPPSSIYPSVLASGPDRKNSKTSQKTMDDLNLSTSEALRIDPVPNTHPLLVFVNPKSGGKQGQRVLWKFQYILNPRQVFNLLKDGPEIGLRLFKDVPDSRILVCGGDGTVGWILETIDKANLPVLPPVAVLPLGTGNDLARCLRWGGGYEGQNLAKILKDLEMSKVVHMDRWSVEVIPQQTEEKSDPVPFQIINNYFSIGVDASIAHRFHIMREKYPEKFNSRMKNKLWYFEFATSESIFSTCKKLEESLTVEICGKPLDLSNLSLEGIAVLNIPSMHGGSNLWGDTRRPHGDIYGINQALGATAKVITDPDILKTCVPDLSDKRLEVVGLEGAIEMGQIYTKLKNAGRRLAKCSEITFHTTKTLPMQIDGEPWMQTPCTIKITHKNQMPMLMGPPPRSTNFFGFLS

With `Cn1c(=O)nc(N(CC(F)F)c2cc(F)cc(C#CC3(C(F)(F)F)CC3)c2)c2ccc(Cl)cc21` [Example 28, 7-chloro-4-[N-(2,2-difluoroethyl)-3-fluoro-5-[2-[1-(trifluoromethyl)cyclopropyl]ethynyl]anilino]-1-methyl-quinazolin-2-one], the IC50 (as a rule, the concentration needed to halve the response being measured) on human DGKα is 169 nM. Also, the EC50 (in general, the midpoint of the concentration-response curve) in assay [1] was found to be 1.15 nM.
The corresponding values for `O=c1nc(N(CC(F)(F)F)c2cc(F)cc(C#CC3(C(F)(F)F)CC3)c2)c2ccc(Cl)cc2[nH]1` [Example 29, 7-chloro-4-[3-fluoro-N-(2,2,2-trifluoroethyl)-5-[2-[1-(trifluoromethyl)cyclopropyl]ethynyl]anilino]-1H-quinazolin-2-one] are 849 nM and 1.88 nM.
On human DGKα, `Cn1c(=O)nc(N(CC(F)(F)F)c2cc(F)cc(C#CC3(C(F)(F)F)CC3)c2)c2cc(F)ccc21` [Example 30, 6-fluoro-4-[3-fluoro-N-(2,2,2-trifluoroethyl)-5-[2-[1-(trifluoromethyl)cyclopropyl]ethynyl]anilino]-1-methyl-quinazolin-2-one] came in with an IC50 of 27.1 nM. For the same compound, in assay [1], the EC50 amounted to 1.94 nM.
The corresponding values for `Cn1c(=O)nc(N(CC(F)(F)F)c2cc(F)cc(C#CC3(C(F)(F)F)CC3)c2)c2c(F)cccc21` [Example 31, 5-fluoro-4-[3-fluoro-N-(2,2,2-trifluoroethyl)-5-[2-[1-(trifluoromethyl)cyclopropyl]ethynyl]anilino]-1-methyl-quinazolin-2-one] are 45.7 nM and 2.89 nM.
The corresponding values for `Cn1c(=O)nc(N(CC(F)(F)F)c2cc(F)cc(C#CC3(C(F)(F)F)CC3)c2)c2ccc(Cl)cc21` [Example 32, 7-chloro-4-[3-fluoro-N-(2,2,2-trifluoroethyl)-5-[2-[1-(trifluoromethyl)cyclopropyl]ethynyl]anilino]-1-methyl-quinazolin-2-one] are 123 nM and 1.02 nM.
In the case of `O=c1nc(N(CC(F)F)c2cc(F)cc(C#CC3(C(F)(F)F)CC3)c2)c2ccc(Cl)cc2n1CCO` [Example 33, 7-chloro-4-[N-(2,2-difluoroethyl)-3-fluoro-5-[2-[1-(trifluoromethyl)cyclopropyl]ethynyl]anilino]-1-(2-hydroxyethyl)quinazolin-2-one], on human DGKα, the IC50 was 284 nM. For the same compound, in assay [1], the EC50 stood at 3.65 nM.
The corresponding values for `CC(C)(O)C#Cc1cc(F)cc(N(CC(F)F)c2nc(=O)[nH]c3cccc(F)c23)c1` [Example 34, 4-[N-(2,2-difluoroethyl)-3-fluoro-5-(3-hydroxy-3-methyl-but-1-ynyl)anilino]-5-fluoro-1H-quinazolin-2-one] are 32.8 nM and 13.4 nM.
As to `O=c1nc(N(CC(F)F)c2cc(F)cc(C#CC3(C(F)(F)F)CC3)c2)c2c(F)c(F)ccc2[nH]1` [Example 35, 4-[N-(2,2-difluoroethyl)-3-fluoro-5-[2-[1-(trifluoromethyl)cyclopropyl]ethynyl]anilino]-5,6-difluoro-1H-quinazolin-2-one], on human DGKα, the IC50 is 159 nM. The EC50 in assay [1] is 0.999 nM.
The corresponding values for `CCn1c(=O)nc(N(CC(F)F)c2cc(F)cc(C#CC3(C(F)(F)F)CC3)c2)c2c(F)cccc21` [Example 36, 4-[N-(2,2-difluoroethyl)-3-fluoro-5-[2-[1-(trifluoromethyl)cyclopropyl]ethynyl]anilino]-1-ethyl-5-fluoro-quinazolin-2-one] are 184 nM and 21.1 nM.
The corresponding values for `CCn1c(=O)nc(N(CC(F)F)c2cc(F)cc(C#CC(C)(C)O)c2)c2c(F)cccc21` [Example 37, 4-[N-(2,2-difluoroethyl)-3-fluoro-5-(3-hydroxy-3-methyl-but-1-ynyl)anilino]-1-ethyl-5-fluoro-quinazolin-2-one] are 54.3 nM and 39.6 nM.
The corresponding values for `[2H]C([2H])([2H])n1c(=O)nc(N(CC(F)F)c2cc(F)cc(C#CC(C)(C)O)c2)c2c(F)cccc21` [Example 38, 4-[N-(2,2-difluoroethyl)-3-fluoro-5-(3-hydroxy-3-methyl-but-1-ynyl)anilino]-5-fluoro-1-(trideuteriomethyl)quinazolin-2-one] are 16 nM and 11.1 nM.
`O=c1nc(N(CC(F)F)c2cc(F)cc(-c3cnc(C4CC4)cn3)c2)c2c(F)c(F)ccc2[nH]1` [Example 39, 4-[3-(5-cyclopropylpyrazin-2-yl)-N-(2,2-difluoroethyl)-5-fluoro-anilino]-5,6-difluoro-1H-quinazolin-2-one]: half-maximal inhibition on human DGKα (IC50) was put at 13.4 nM. Besides, the EC50 in assay [1] amounted to 0.705 nM.
The corresponding values for `O=c1nc(N2CCCc3c(C#CC4(C(F)(F)F)CC4)cccc32)c2c(F)c(F)ccc2[nH]1` [Example 40, 5,6-difluoro-4-[5-[2-[1-(trifluoromethyl)cyclopropyl]ethynyl]-3,4-dihydro-2H-quinolin-1-yl]-1H-quinazolin-2-one] are 13.4 nM and 0.399 nM.
The corresponding values for `[2H]C([2H])([2H])n1c(=O)nc(N(CC(F)F)c2cc(F)cc(C#CC3(C(F)(F)F)CC3)c2)c2c(F)c(F)ccc21` [Example 41, 4-[N-(2,2-difluoroethyl)-3-fluoro-5-[2-[1-(trifluoromethyl)cyclopropyl]ethynyl]anilino]-5,6-difluoro-1-(trideuteriomethyl)quinazolin-2-one] are 9.63 nM and 1 nM.
The corresponding values for `[2H]C([2H])([2H])n1c(=O)nc(N2CCCc3c(C#CC4(C(F)(F)F)CC4)cccc32)c2c(F)c(F)ccc21` [Example 42, 5,6-difluoro-1-(trideuteriomethyl)-4-[5-[2-[1-(trifluoromethyl)cyclopropyl]ethynyl]-3,4-dihydro-2H-quinolin-1-yl]quinazolin-2-one] are 9.48 nM and 0.311 nM.
For `CC(C)(O)C#Cc1cccc2c1CCCN2c1nc(=O)[nH]c2cccc(F)c12` [Example 43, 5-fluoro-4-[5-(3-hydroxy-3-methyl-but-1-ynyl)-3,4-dihydro-2H-quinolin-1-yl]-1H-quinazolin-2-one], inhibition on human DGKα was half-maximal at 1.84 nM (IC50). In assay [1], the EC50 came out at 2.53 nM.
The corresponding values for `[2H]C([2H])([2H])n1c(=O)nc(N(CC(F)F)c2cc(F)cc(-c3cnc(C4CC4)cn3)c2)c2c(F)cccc21` [Example 44, 4-[3-(5-cyclopropylpyrazin-2-yl)-N-(2,2-difluoroethyl)-5-fluoro-anilino]-5-fluoro-1-(trideuteriomethyl)quinazolin-2-one] are 11.2 nM and 1.43 nM.
The corresponding values for `O=c1nc(N(CC(F)F)c2cncc(C#CC3(C(F)(F)F)CC3)c2)c2cc(F)ccc2[nH]1` [Example 45, 4-((2,2-difluoroethyl)(5-((1-(trifluoromethyl)cyclopropyl)ethynyl)pyridin-3-yl)amino)-6-fluoroquinazolin-2(1H)-one] are 67.4 nM and 6.18 nM.
`O=c1nc(N(CC(F)F)c2cccc(C#CC3(C(F)(F)F)CC3)n2)c2cc(F)ccc2[nH]1` [Example 46, 4-((2,2-difluoroethyl)(6-((1-(trifluoromethyl)cyclopropyl)ethynyl)pyridin-2-yl)amino)-6-fluoroquinazolin-2(1H)-one] gave a half-maximal inhibitory concentration (IC50) against human DGKα of 86.9 nM. Besides, the EC50 in assay [1] stood at 15.3 nM.
The corresponding values for `Cn1c(=O)nc(N(CC(F)F)c2cccc(C#CC3(C(F)(F)F)CC3)n2)c2cc(F)ccc21` [Example 47, 4-((2,2-difluoroethyl)(6-((1-(trifluoromethyl)cyclopropyl)ethynyl)pyridin-2-yl)amino)-6-fluoro-1-methylquinazolin-2(1H)-one] are 15 nM and 1.37 nM.
The corresponding values for `O=c1nc(N(CC(F)F)c2cccc(C#CC3(C(F)(F)F)CC3)c2F)c2cc(F)ccc2[nH]1` [Example 48, 4-[N-(2,2-difluoroethyl)-2-fluoro-3-[2-[1-(trifluoromethyl)cyclopropyl]ethynyl]anilino]-6-fluoro-1H-quinazolin-2-one] are 62.8 nM and 5.29 nM.
The corresponding values for `CC(C)(C#Cc1cccc(N(CC(F)F)c2nc(=O)[nH]c3ccc(F)cc23)c1F)C(F)(F)F` [Example 49, 4-[N-(2,2-difluoroethyl)-2-fluoro-3-(4,4,4-trifluoro-3,3-dimethyl-but-1-ynyl)anilino]-6-fluoro-1H-quinazolin-2-one] are 296 nM and 5.3 nM.
As to `O=c1nc(N(CC(F)F)c2cc(F)cc(C#CC3(C(F)(F)F)CC3)c2)c2cc(F)ccc2[nH]1` [Example 50, 4-[N-(2,2-difluoroethyl)-3-fluoro-5-[2-[1-(trifluoromethyl)cyclopropyl]ethynyl]anilino]-6-fluoro-1H-quinazolin-2-one], the midpoint of inhibition on human DGKα, the IC50, lay at 213 nM. The EC50 in assay [1] was 1.81 nM.
The corresponding values for `[2H]C([2H])([2H])n1c(=O)nc(N(CC(F)F)c2cc(F)cc(C#CC3(C(F)(F)F)CC3)c2)c2cc(F)ccc21` [Example 51, 4-[N-(2,2-difluoroethyl)-3-fluoro-5-[2-[1-(trifluoromethyl)cyclopropyl]ethynyl]anilino]-6-fluoro-1-(trideuteriomethyl)quinazolin-2-one] are 35.3 nM and 0.75 nM.
The corresponding values for `COC(C)(C)C#Cc1cccc2c1CCCN2c1nc(=O)[nH]c2cccc(F)c12` [Example 52, 5-fluoro-4-[5-(3-methoxy-3-methyl-but-1-ynyl)-3,4-dihydro-2H-quinolin-1-yl]-1H-quinazolin-2-one] are 12.9 nM and 0.197 nM.
The corresponding values for `CC(C)(C)C(O)C#Cc1cccc2c1CCCN2c1nc(=O)[nH]c2cccc(F)c12` (stereo not drawn) [Example 53, 5-fluoro-4-[5-(3-hydroxy-4,4-dimethyl-pent-1-ynyl)-3,4-dihydro-2H-quinolin-1-yl]-1H-quinazolin-2-one] are 47.8 nM and 2.74 nM.
`CC(C)(O)CC#Cc1cccc2c1CCCN2c1nc(=O)[nH]c2cccc(F)c12` [Example 54, 5-fluoro-4-[5-(4-hydroxy-4-methyl-pent-1-ynyl)-3,4-dihydro-2H-quinolin-1-yl]-M-quinazolin-2-one]: it took 23.6 nM to reach half-maximal inhibition against human DGKα (IC50). Besides, the EC50 in assay [1] was 8.22 nM.
